The test system of one assay is DR7. Nature of the assay: DR7.
A further assay has as its system DR15. Description: DR15.
The next assay addresses T1, HLA-DRB4 (DRB4*0101) (Homo sapiens, UniProt P01903+P13762, G164S).
T1 construct: endogenous in cells; host or cells: homozygous EBV-transformed human B lymphocyte lines; immunopurified with antibody L243
Description: biochemical. Particulars: read-out: binds with good affinity to DRB4. Format: binding.

Another assay addresses T2, HLA-DR1 (DRB1*0101) (Homo sapiens, UniProt P01903+P01911, A100R/D57E/F55L/F60I/F76Y/I96L/L162R/M171V/P40L/Q125E/R42F/V115G/Y59C).
T2 construct: endogenous in cells; host or cells: homozygous EBV-transformed human B lymphocyte lines; immunopurified with antibody L243
Description: biochemical. Format: binding. Particulars: for IC50: DRB1*0101.

The subject of a further assay is DR1. Description: DR1.
The next assay concerns DRB4. Nature of the assay: DRB4. From the text: (§1) Table printed on a drawing sheet, Figure 2
Where the first naming reader finds the target: head: DRB4

The next assay has as its target T3, HLA-DR15 (DRB1*1501) (Homo sapiens, UniProt P01903+P01911).
T3 construct: endogenous in cells; host or cells: homozygous EBV-transformed human B lymphocyte lines; immunopurified with antibody L243
Description: biochemical. In kind it is binding. Particulars: DRB1*1501; read-out: binds with good affinity to DR15.

The target of a further assay is T4, HLA-DR4 (DRB1*0401) (Homo sapiens, UniProt P01903+P01911, A100K/A169T/F76Y/I96L/K127E/L162R/M171V/N62H/P40V/Q125Y/R42H/S133A/S149N/S66Y/V115G/V209L/W38E).
T4 construct: endogenous in cells; host or cells: homozygous EBV-transformed human B lymphocyte lines; immunopurified with antibody L243
Description: biochemical. In kind it is binding. Particulars: read-out: binds with good affinity to DR4.

The test system of the next assay is DP401. Nature of the assay: DP401.
The next assay relates to DR11. Description: DR11.
Source text: as §1
Where the first naming reader finds the target: head: DR11

The test system of a further assay is DP402. Description: DP402.
Another assay concerns the target HLA-DR11 (DRB1*1101) (Homo sapiens, UniProt P01903+P01911, A100R/A169T/A87E/I96F/K41T/L162R/M171V/P40S/Q125H/Q178H/Q39Y/Q99D/R42S/S66Y/T262R/V115G/W38E). Description: biochemical. In kind it is binding. As to conditions: read-out: binds with good affinity to DR11.
The test system of another assay is DRB3. Nature of the assay: DRB3.
For a further assay, the system named is DRB5. Description: DRB5.
Another assay deals with DR3. Description: DR3.
Source text: as §1
Where the first naming reader finds the target: head: DR3

For the next assay, the target named is T5, HLA-DRB5 (DRB5*0101) (Homo sapiens, UniProt P01903+Q30154).
T5 construct: endogenous in cells; host or cells: homozygous EBV-transformed human B lymphocyte lines; immunopurified with antibody L243
Description: biochemical. Particulars: read-out: binds with good affinity to DRB5. In kind it is binding.

Another assay has as its system DR4. Description: DR4.
The target in the next assay is HLA-DR7 (DRB1*0701) (Homo sapiens, UniProt P01903+P01911, A100R/A102G/A103Q/D57E/D86V/E43K/F76Y/K127E/L162R/M171V/P40G/Q125H/Q99D/R33Q/R42Y/R54Q/S133A/S66F/T210M/V115G/Y107V/Y59L/Y89S). Description: biochemical. Format: binding. Particulars: read-out: binds with good affinity to DR7.
The next assay relates to DR13. Nature of the assay: DR13.
Source text: as §1
Where the first naming reader finds the target: head: DR13

Another assay addresses HLA-DR13 (DRB1*1301) (Homo sapiens, UniProt P01903+P01911, A100E/A169T/K41T/L162R/M171V/P40S/Q125H/Q178H/Q39Y/Q99D/R42S/S66N/T262R/W38E/Y61H). Description: biochemical. Format: binding. As to conditions: read-out: binds with good affinity to DR13.
Assay [1] relates to T lymphocytes derived from PBMCs from patients chronically infected with HCV. Format: cell-based, human. As to conditions: supernatant 48 h, —: not detected.
Where [2] appears, read: read-out: binds with good affinity to DR1.

Read-outs that look alike come from different tables or passages of the source. Residues, ends and D or L forms follow the SMILES beside them.

Sequence of HLA-DR11 (DRB1*1101) (P01903 26-254 limits assumed, other chains not shown): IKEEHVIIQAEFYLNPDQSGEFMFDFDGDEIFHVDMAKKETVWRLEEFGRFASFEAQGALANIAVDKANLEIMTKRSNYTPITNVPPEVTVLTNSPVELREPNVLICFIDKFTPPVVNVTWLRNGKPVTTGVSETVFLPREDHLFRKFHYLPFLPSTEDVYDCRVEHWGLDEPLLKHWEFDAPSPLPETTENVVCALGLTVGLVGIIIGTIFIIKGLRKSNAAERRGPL

As to `CC[C@H](C)[C@H](NC(=O)[C@H](CCC(N)=O)NC(=O)[C@@H](NC(=O)[C@H](CCC(=O)O)NC(=O)CNC(=O)[C@H](CCC(=O)O)NC(=O)[C@@H](NC(=O)[C@H](CCC(N)=O)NC(=O)[C@H](CC(N)=O)NC(=O)[C@@H](N)CCCCN)C(C)C)C(C)C)C(=O)N[C@H](C(=O)N[C@@H](CO)C(=O)N[C@H](C(=O)N[C@@H](C)C(=O)N[C@@H](C)C(=O)N[C@@H](CCC(N)=O)C(=O)N[C@H](C(=O)N[C@@H](Cc1ccccc1)C(=O)N[C@@H](CC(C)C)C(=O)N[C@@H](C)C(=O)N[C@H](C(=O)O)[C@@H](C)O)[C@@H](C)O)[C@@H](C)O)C(C)C` [10N 1052-1072], the IC50 in the assay on DR7 is 0.007 µM; in the assay on DR15, 0.3 µM; on HLA-DRB4 (DRB4*0101), less than 1 µM; on HLA-DR1 (DRB1*0101) (setting [2]) it was less than 1 µM; in the assay with DR1, 0.4 µM; with DRB4 it was 0.4 µM. In addition, the IC50 at HLA-DR15 (DRB1*1501) is less than 1 µM; at HLA-DR4 (DRB1*0401), less than 1 µM; with DP401, 2.03 µM; in the assay with DR11, 0.2 µM; with DP402 it was 1.18 µM; on HLA-DR11 (DRB1*1101), less than 1 µM. In addition, the IC50 was 10 µM in the assay with DRB3; 0.019 µM in the assay with DRB5; 2.25 µM in the assay with DR3; less than 1 µM on HLA-DRB5 (DRB5*0101); 0.024 µM in the assay on DR4; less than 1 µM at HLA-DR7 (DRB1*0701).
On to `CC[C@H](C)[C@H](NC(=O)[C@@H](NC(=O)[C@H](CC(=O)O)NC(=O)[C@H](C)NC(=O)[C@H](Cc1c[nH]cn1)NC(=O)[C@H](CCCNC(=N)N)NC(=O)[C@@H](NC(=O)[C@@H](NC(=O)[C@H](CC(C)C)NC(=O)[C@H](Cc1ccc(O)cc1)NC(=O)[C@H](CC(C)C)NC(=O)[C@H](CC(=O)O)NC(=O)[C@H](CO)NC(=O)[C@@H](N)CO)C(C)C)[C@@H](C)O)C(C)C)C(=O)N1CCC[C@H]1C(=O)N[C@H](C(=O)N[C@@H](CCCNC(=N)N)C(=O)N[C@@H](CCCNC(=N)N)C(=O)N[C@@H](CCCNC(=N)N)C(=O)NCC(=O)N[C@@H](CC(=O)O)C(=O)N[C@@H](CO)C(=O)N[C@@H](CCCNC(=N)N)C(=O)NCC(=O)N[C@@H](CO)C(=O)N[C@@H](CC(C)C)C(=O)N[C@@H](CC(C)C)C(=O)O)C(C)C` [13N 1127-1153], for which the IC50 is 0.017 µM in the assay with DR7; less than 1 µM at HLA-DR1 (DRB1*0101) (setting [2]); 0.7 µM in the assay with DR1; 2.5 µM with DRB4; 0.3 µM in the assay on DR13; 0.017 µM in the assay with DR11. The IC50 in the assay on DP402 was 8.71 µM; on HLA-DR11 (DRB1*1101), less than 1 µM; with DRB5, 0.5 µM; at HLA-DRB5 (DRB5*0101), less than 1 µM; with DR4 it was 3.5 µM; on HLA-DR7 (DRB1*0701) it was less than 1 µM. The IC50 on HLA-DR13 (DRB1*1301) is less than 1 µM.
For the compound `CC[C@H](C)[C@H](NC(=O)CNC(=O)[C@@H](NC(=O)[C@H](C)NC(=O)[C@H](Cc1c[nH]cn1)NC(=O)CN)C(C)C)C(=O)N[C@@H](Cc1ccccc1)C(=O)N[C@@H](CCCNC(=N)N)C(=O)N[C@@H](C)C(=O)N[C@@H](C)C(=O)N[C@H](C(=O)N[C@@H](CS)C(=O)N[C@H](C(=O)N[C@@H](CCCNC(=N)N)C(=O)NCC(=O)N[C@H](C(=O)N[C@@H](C)C(=O)N[C@@H](CCCCN)C(=O)N[C@@H](C)C(=O)N[C@H](C(=O)N[C@@H](CC(=O)O)C(=O)N1CCC[C@H]1C(=O)O)C(C)C)C(C)C)[C@@H](C)O)C(C)C` [15N 1174-1195] (H-GHAVGIFRAAVCTRGVAKAVDP-OH; N-terminus and C-terminus assumed), the results for the IL10 in assay [1] (patient 067) and in assay [1] (patient 078) were 55 pg/mL and 43 pg/mL, respectively. Also, the IC50 in the assay on DR15 is 0.09 µM; on HLA-DRB4 (DRB4*0101), less than 1 µM; on HLA-DR1 (DRB1*0101) (competition with biotinylated tracer HA 306-318, read-out: IC50, binding to HLA-DR1), 0.003 µM; on HLA-DR1 (DRB1*0101) (setting [2]), less than 1 µM; at HLA-DR15 (DRB1*1501), less than 1 µM; at HLA-DR4 (DRB1*0401), less than 1 µM. Moreover, the IC50 in the assay on DR13 was 10 µM; in the assay with DP402, 2.98 µM; on HLA-DR11 (DRB1*1101) it was less than 1 µM; with DRB5, 0.02 µM; in the assay on DR3, 30 µM; at HLA-DRB5 (DRB5*0101), less than 1 µM. For the same compound, in the assay on DR4, the IC50 was determined as 0.03 µM. The “affinity for HLA-DR1 (in words)” value on HLA-DR1 (DRB1*0101) (legend of FIG. 4) was “high affinity”.
As for `CC[C@H](C)[C@H](NC(=O)CNC(=O)[C@H](Cc1c[nH]cn1)NC(=O)[C@H](C)NC(=O)[C@H](CCCCN)NC(=O)[C@H](CO)NC(=O)[C@H](CCSC)NC(=O)[C@H](Cc1ccc(O)cc1)NC(=O)[C@H](C)NC(=O)CNC(=O)[C@H](Cc1ccccc1)NC(=O)CNC(=O)[C@H](CC(C)C)NC(=O)[C@@H](NC(=O)[C@H](C)NC(=O)[C@H](C)NC(=O)[C@@H](NC(=O)[C@H](CO)NC(=O)[C@@H]1CCCN1C(=O)[C@H](CC(N)=O)NC(=O)[C@H](CC(C)C)NC(=O)[C@@H](NC(=O)[C@H](CC(C)C)NC(=O)[C@@H](NC(=O)[C@H](CCCCN)NC(=O)[C@H](Cc1ccc(O)cc1)NC(=O)CNC(=O)[C@H](CCC(N)=O)NC(=O)[C@H](C)N)C(C)C)C(C)C)C(C)C)[C@@H](C)O)C(=O)N[C@@H](CC(=O)O)C(=O)O` [18N 1246-1275], the IC50 with DR7 is 0.015 µM; in the assay with DR15, 0.058 µM; at HLA-DR1 (DRB1*0101) (setting [2]) it was less than 1 µM; in the assay on DR1, 0.001 µM; in the assay on DRB4 it was 2.5 µM; at HLA-DR15 (DRB1*1501), less than 1 µM. The IC50 at HLA-DR4 (DRB1*0401) is less than 1 µM; in the assay with DP401, more than 100 µM; in the assay on DR13, 0.9 µM; in the assay with DR11, 0.04 µM; in the assay on DP402, 11.4 µM; at HLA-DR11 (DRB1*1101) it was less than 1 µM. Further, the IC50 in the assay on DRB3 was more than 30 µM; with DR3, 2.5 µM; with DR4, 0.005 µM; on HLA-DR7 (DRB1*0701), less than 1 µM; at HLA-DR13 (DRB1*1301), less than 1 µM.
Take `CC[C@H](C)[C@H](N)C(=O)N[C@@H](CCC(=O)O)C(=O)N[C@@H](CCC(=O)O)C(=O)N[C@H](C(=O)N[C@@H](C)C(=O)N[C@@H](CC(C)C)C(=O)N[C@@H](CO)C(=O)N[C@H](C(=O)N[C@H](C(=O)NCC(=O)N[C@@H](CCC(=O)O)C(=O)N[C@H](C(=O)N1CCC[C@H]1C(=O)N[C@@H](Cc1ccccc1)C(=O)N[C@@H](Cc1ccc(O)cc1)C(=O)NCC(=O)N[C@@H](CCCCN)C(=O)N[C@@H](C)C(=O)N[C@H](C(=O)N1CCC[C@H]1C(=O)N[C@@H](CC(C)C)C(=O)N[C@@H](CCC(=O)O)C(=O)N[C@H](C(=O)N[C@H](C(=O)N[C@@H](CCCCN)C(=O)NCC(=O)O)[C@@H](C)CC)C(C)C)[C@@H](C)CC)[C@@H](C)CC)[C@@H](C)O)[C@@H](C)O)C(C)C` [22N 1362-1387] (H-IEEVALSTTGEIPFYGKAIPLEVIKG-OH; N-terminus and C-terminus assumed): the IC50 is 0.02 µM in the assay with DR7; 0.425 µM in the assay with DR15; less than 1 µM at HLA-DR1 (DRB1*0101) (setting [2]); 4 µM with DRB4; less than 1 µM on HLA-DR15 (DRB1*1501); 8.01 µM with DP401. For the same compound, the IC50 in the assay with DR11 is 3 µM; in the assay on DP402, 10.3 µM; in the assay with DRB3, 32.5 µM; with DRB5, 0.2 µM; in the assay with DR3, 21.2 µM; on HLA-DRB5 (DRB5*0101) it was less than 1 µM. The IC50 with DR4 is 1.62 µM; on HLA-DR7 (DRB1*0701), less than 1 µM.
